For assay [1], the system named is P388. Description: Antitumor activity against mouse P388 cells after 48 hrs by MTT assay. The assay is classed as functional, cell-based. Conditions: P388, 48 h.
The test system of assay [2] is P388. Description: Antitumor activity against mouse P388 cells implanted in CDF1 mouse assessed as decrease in weight change at 2.0 mg/kg, ip. The format is functional. More on the design: scale not given: the % may be the effect or the level left. Conditions: route intraperitoneal.
The subject of assay [3] is P388. Description: Antitumor activity against mouse P388 cells implanted in CDF1 mouse assessed as decrease in weight change at 0.5 mg/kg, ip. The assay is classed as functional. To be noted: route intraperitoneal. Details: scale not given: the % may be the effect or the level left.
The subject of assay [4] is P388. The assay can be described thus: Antitumor activity against mouse P388 cells implanted in CDF1 mouse assessed as increase in life span at 2.0 mg/kg, ip. To be noted: route intraperitoneal. The assay is classed as functional.
The test system of another assay is MKN-74. The assay can be described thus: Antitumor activity against human MKN74 cells after 48 hrs by MTT assay. The format is functional, cell-based. To be noted: MKN-74, 48 h.
Assay [5] has as its system P388. The assay can be described thus: Antitumor activity against mouse P388 cells implanted in CDF1 mouse assessed as decrease in weight change at 4.0 mg/kg, ip. Conditions: route intraperitoneal. The format is functional. More on the design: scale not given: the % may be the effect or the level left.
For assay [6], the system named is P388. The assay can be described thus: Antitumor activity against mouse P388 cells implanted in CDF1 mouse assessed as increase in life span at 8.0 mg/kg, ip. Conditions: route intraperitoneal. The format is functional.
Assay [7] deals with P388. Description: Antitumor activity against mouse P388 cells implanted in CDF1 mouse assessed as increase in life span at 4.0 mg/kg, ip. The format is functional. Conditions: route intraperitoneal.
The nature of assay [8]: Antitumor activity against human MKN1 cells after 48 hrs by MTT assay. The assay is classed as functional, cell-based. To be noted: MKN-1, 48 h.
For assay [9], the system named is P388. Description: Antitumor activity against mouse P388 cells implanted in CDF1 mouse assessed as decrease in weight change at 1.0 mg/kg, ip. The assay is classed as functional. Details: scale not given: the % may be the effect or the level left. Conditions: route intraperitoneal.
A further assay concerns MKN-7. Description: Antitumor activity against human MKN7 cells after 48 hrs by MTT assay. The assay is classed as functional, cell-based. To be noted: MKN-7, 48 h.
Assay [10] concerns P388. The assay can be described thus: Antitumor activity against mouse P388 cells implanted in CDF1 mouse assessed as increase in life span at 1.0 mg/kg, ip. The format is functional. To be noted: route intraperitoneal.
In assay [11] the test system is P388. The assay can be described thus: Antitumor activity against mouse P388 cells implanted in CDF1 mouse assessed as decrease in weight change at 8.0 mg/kg, ip. The assay is classed as functional. Details: scale not given: the % may be the effect or the level left. To be noted: route intraperitoneal.
The subject of assay [12] is P388. Description: Antitumor activity against mouse P388 cells implanted in CDF1 mouse assessed as increase in life span at 0.5 mg/kg, ip. The format is functional. To be noted: route intraperitoneal.

Each structure is given as a SMILES string. Values after ≈ are worked out from the molar mass of the structure shown.

In turn, `CC(=O)O[C@@H]1C[C@@H]2[C@@]3(C)CCCC(C)(C)[C@@H]3CC[C@@]2(C)[C@@H]2CC=C3C(=O)O[C@@H](O)[C@@H]3[C@@]12C` displayed a half-maximal inhibitory concentration (IC50) in the assay on P388 [1] above 1 µg/mL.

With `CC1(C)CCC[C@]2(C)[C@H]3C[C@@H](O)[C@]4(C)[C@H]5OC(=O)C=C5[C@@H](O)C[C@H]4[C@]3(C)CC[C@@H]12`, in the assay on P388 [1], the 50% inhibitory concentration (IC50) is above 1 µg/mL.

Regarding `CC1(C)C(=O)CC[C@]2(C)[C@H]3C[C@@H](O)[C@]4(C)[C@@H]5C(=CC[C@H]4[C@]3(C)CC[C@@H]12)CO[C@H]5O`, the Activity with P388 [2] is reported as 2.4%; in the assay with P388 [3], 3%; in the assay with P388 [4] it was 31.4%; in the assay with P388 [5], 0.9%; with P388 [6], 74.4%; in the assay with P388 [7] it was 51.2%. Moreover, the Activity with P388 [9] came out at 2%; in the assay with P388 [10], 32.6%; in the assay on P388 [11], 0.4%; in the assay on P388 [12], 24.4%. The IC50 with MKN-74 worked out at 0.0368 µg/mL (≈ 0.0914 µM); in [8], 0.0577 µg/mL (≈ 0.143 µM); in the assay on MKN-7, 0.056 µg/mL (≈ 0.139 µM); in the assay on P388 [1], 0.0145 µg/mL (≈ 0.036 µM).

Compound `CC1(C)[C@@H](O)CC[C@]2(C)[C@H]3C[C@@H](O)[C@]4(C)[C@@H]5C(=CC[C@H]4[C@]3(C)CC[C@@H]12)CO[C@H]5O` had an IC50 with P388 [1] of 0.25 µg/mL (≈ 0.618 µM).

As for `CC(=O)O[C@@H]1C[C@@H]2[C@@]3(C)CC[C@H](O)C(C)(C)[C@@H]3CC[C@@]2(C)[C@@H]2CC=C3CO[C@@H](O)[C@@H]3[C@@]12C`, in the assay with P388 [1], half-maximal inhibition (IC50) required 0.505 µg/mL (≈ 1.13 µM).

As to `CC1(C)CCC[C@]2(C)[C@H]3C[C@@H](O)[C@]4(C)[C@@H]5C(=CC[C@H]4[C@]3(C)CC[C@@H]12)CO[C@H]5O`, the IC50 in the assay with P388 [1] is above 1 µg/mL.

On to `C[C@@H]1C[C@H]1[C@H](C)C[C@@H](O)[C@@]1([C@H]2CC[C@H]3[C@@H]4CC[C@H]5CC(=O)CC[C@]5(C)[C@H]4C[C@@H](O)[C@]23C)CO1` [ARAGUSTEROL A], for which the IC50 in the assay with P388 [1] turned out to be 0.022 µg/mL (≈ 0.048 µM).

The compound `C[C@H](CC[C@](C)(O)[C@H]1CC[C@H]2[C@@H]3CC[C@H]4CC(=O)CC[C@]4(C)[C@H]3C[C@@H](O)[C@@]21C)[C@H]1C[C@@H]1C` [ARAGUSTEROL B] yielded an IC50 in the assay on P388 [1] above 3.3 µg/mL.

As to `C[C@H](C[C@@H](O)[C@](O)(CCl)[C@H]1CC[C@H]2[C@@H]3CC[C@H]4CC(=O)CC[C@]4(C)[C@H]3C[C@@H](O)[C@]12C)[C@H]1C[C@@H]1C` [ARAGUSTEROL C], it took 0.041 µg/mL (≈ 0.0828 µM) to reach half-maximal inhibition in the assay with P388 [1] (IC50).

(Values after ChEMBL document CHEMBL1158669, “Cytotoxic scalarane sesterterpenes from a sponge, Hyrtios erecta” (J Nat Prod, 1998).)
